Legend:
Conditions in all cases: Compound concentration 1.0 uM
[1] = molecular target: T1, Serine/threonine-protein kinase BRSK2 (Homo sapiens) (UniProt Q8IWQ3)
T1 sequence (whole entry): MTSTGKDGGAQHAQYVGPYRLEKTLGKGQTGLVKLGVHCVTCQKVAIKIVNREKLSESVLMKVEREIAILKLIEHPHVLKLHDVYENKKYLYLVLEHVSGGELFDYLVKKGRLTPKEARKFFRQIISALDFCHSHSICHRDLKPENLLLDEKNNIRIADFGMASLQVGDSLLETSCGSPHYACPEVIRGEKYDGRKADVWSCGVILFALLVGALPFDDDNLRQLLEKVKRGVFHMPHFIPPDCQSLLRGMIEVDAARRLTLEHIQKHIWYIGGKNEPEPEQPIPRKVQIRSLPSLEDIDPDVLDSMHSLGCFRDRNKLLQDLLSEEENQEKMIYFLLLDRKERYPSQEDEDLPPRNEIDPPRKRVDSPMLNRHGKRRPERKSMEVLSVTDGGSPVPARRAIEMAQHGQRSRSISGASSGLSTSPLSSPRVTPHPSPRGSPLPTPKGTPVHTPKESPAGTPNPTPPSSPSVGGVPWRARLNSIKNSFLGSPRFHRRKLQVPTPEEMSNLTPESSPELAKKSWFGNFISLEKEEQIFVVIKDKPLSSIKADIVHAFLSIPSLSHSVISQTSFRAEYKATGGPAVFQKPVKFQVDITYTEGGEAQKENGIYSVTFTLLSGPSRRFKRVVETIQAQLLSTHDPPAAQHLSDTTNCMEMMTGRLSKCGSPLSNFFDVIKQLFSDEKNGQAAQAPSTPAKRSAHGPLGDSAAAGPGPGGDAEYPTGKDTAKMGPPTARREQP

[2] = molecular target: Calcium/calmodulin-dependent protein kinase type 1B (Homo sapiens) (UniProt Q6P2M8)
[3] = molecular target: Proto-oncogene tyrosine-protein kinase Src (Homo sapiens) (UniProt P12931)
[4] = molecular target: T2, Dual specificity tyrosine-phosphorylation-regulated kinase 2 (Homo sapiens) (UniProt Q92630)
T2 sequence (whole entry): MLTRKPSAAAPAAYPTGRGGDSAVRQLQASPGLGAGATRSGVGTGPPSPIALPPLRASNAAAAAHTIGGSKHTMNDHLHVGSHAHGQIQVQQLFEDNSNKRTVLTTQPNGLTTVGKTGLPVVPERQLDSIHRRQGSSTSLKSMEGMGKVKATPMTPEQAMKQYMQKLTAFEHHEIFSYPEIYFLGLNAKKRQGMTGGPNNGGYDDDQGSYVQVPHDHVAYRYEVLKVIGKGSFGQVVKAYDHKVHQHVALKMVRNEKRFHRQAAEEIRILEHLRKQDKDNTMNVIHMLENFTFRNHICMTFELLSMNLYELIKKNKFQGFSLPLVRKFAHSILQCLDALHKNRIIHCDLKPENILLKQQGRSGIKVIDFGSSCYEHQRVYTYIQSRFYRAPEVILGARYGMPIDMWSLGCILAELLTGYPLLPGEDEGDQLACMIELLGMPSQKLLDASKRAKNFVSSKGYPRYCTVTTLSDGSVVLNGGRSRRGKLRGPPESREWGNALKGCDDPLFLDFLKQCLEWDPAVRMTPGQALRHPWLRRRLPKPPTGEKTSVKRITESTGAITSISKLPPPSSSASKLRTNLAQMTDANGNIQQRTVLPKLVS

[5] = molecular target: T3, Beta-adrenergic receptor kinase 1 (Homo sapiens) (UniProt P25098)
T3 sequence (whole entry): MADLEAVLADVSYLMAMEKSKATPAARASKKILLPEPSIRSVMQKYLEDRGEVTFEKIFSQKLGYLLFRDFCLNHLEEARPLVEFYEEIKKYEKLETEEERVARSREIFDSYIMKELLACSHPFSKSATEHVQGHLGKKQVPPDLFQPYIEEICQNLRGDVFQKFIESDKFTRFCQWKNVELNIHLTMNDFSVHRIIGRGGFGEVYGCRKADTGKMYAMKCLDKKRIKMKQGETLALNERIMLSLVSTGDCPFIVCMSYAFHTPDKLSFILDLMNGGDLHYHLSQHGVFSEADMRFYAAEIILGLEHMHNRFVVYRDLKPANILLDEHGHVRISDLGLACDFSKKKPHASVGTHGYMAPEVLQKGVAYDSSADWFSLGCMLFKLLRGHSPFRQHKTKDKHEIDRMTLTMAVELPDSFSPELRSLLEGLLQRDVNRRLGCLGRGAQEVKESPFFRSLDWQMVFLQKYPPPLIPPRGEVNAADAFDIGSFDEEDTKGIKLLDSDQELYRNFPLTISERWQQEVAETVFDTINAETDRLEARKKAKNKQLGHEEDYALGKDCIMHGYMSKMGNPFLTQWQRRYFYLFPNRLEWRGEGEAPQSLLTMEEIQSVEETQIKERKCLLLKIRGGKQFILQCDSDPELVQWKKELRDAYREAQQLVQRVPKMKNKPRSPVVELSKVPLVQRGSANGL

[6] = molecular target: T4, Mitogen-activated protein kinase kinase kinase 7 (Homo sapiens) (UniProt O43318)
T4 sequence (whole entry): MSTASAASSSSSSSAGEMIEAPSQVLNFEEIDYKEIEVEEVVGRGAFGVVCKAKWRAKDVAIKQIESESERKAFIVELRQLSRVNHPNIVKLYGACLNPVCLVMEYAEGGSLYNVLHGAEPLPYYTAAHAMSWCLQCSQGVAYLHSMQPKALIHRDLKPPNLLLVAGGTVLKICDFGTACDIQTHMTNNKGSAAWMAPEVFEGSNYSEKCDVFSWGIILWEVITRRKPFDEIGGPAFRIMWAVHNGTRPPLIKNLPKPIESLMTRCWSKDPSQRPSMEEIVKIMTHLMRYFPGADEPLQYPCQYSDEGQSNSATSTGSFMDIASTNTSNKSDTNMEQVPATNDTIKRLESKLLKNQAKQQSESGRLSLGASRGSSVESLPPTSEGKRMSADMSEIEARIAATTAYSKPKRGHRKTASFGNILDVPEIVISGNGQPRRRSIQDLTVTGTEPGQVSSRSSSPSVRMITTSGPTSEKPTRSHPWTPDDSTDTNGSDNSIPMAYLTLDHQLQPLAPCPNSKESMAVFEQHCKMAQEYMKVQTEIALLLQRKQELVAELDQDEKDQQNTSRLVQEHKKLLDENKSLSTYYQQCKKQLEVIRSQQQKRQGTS

Measured: % residual kinase activity

Chain of Proto-oncogene tyrosine-protein kinase Src (Homo sapiens) (P12931 2-536 limits assumed): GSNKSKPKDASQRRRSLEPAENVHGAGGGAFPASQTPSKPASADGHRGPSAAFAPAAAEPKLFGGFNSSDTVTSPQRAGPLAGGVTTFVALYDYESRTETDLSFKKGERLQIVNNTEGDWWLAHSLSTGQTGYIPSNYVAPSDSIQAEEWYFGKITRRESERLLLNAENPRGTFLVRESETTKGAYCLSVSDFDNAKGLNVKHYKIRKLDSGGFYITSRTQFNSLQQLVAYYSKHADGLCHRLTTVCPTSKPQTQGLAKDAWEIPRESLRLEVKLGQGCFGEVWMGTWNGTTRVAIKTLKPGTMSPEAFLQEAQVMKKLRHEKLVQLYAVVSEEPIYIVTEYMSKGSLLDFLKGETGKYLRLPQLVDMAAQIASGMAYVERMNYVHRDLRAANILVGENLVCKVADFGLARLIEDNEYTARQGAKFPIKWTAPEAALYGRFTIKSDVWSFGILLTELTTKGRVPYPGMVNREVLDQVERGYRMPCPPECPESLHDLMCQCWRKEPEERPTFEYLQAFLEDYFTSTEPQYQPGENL
Chain of Calcium/calmodulin-dependent protein kinase type 1B (Homo sapiens) (Q6P2M8 whole entry): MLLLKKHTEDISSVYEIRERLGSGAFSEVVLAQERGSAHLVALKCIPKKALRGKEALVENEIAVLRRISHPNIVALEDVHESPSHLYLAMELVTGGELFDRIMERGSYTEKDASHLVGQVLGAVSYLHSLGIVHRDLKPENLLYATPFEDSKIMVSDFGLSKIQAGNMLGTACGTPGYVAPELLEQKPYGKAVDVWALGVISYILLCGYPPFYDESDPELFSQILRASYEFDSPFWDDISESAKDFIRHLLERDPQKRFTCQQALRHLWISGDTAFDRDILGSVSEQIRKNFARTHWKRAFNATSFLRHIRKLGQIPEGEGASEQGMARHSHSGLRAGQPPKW

CN1CCN(c2cnc3c(C4CCN(C(=O)c5ccc(OC(F)(F)F)cc5N)CC4)ncnc3c2)CC1 [BAY-885]
inactive: [1] 102% | [2] 104% | [3] 113% | [4] 105% | [5] 85% | [6] 107%
